Laboratory results as given in PMC7397274, “Triazolopyridopyrimidine: A New Scaffold for Dual-Target Small Molecules for Alzheimer’s Disease Therapy” (Molecules, 2020).
Where “and” joins values, the source holds several entries; their conditions need not be identical. Identical values can stand only once. Like-named read-outs stand apart in the source and are kept apart here.

Legend:
[1] = ORAC-FL; for ORAC (TE): fluorescein probe, Trolox standard, mean (n = 3) ± SEM; for antioxidant activity (ORAC) in words: qualitative statement or comparison with positive controls
Description: The ability of triazolopyridopyrimidines 3a–k to reduce the amount of peroxyl radicals was determined by the oxygen radical absorbance capacity by fluorescence (ORAC-FL) method [26, 27] using fluorescein (FL) as the fluorescent probe, and 6-hydroxy-2,5,7,8-tetramethyl-chroman-2-carboxylic acid (Trolox) as standard compound. Results were expressed as μmol Trolox equivalents (TE).
Briefly, fluorescein and antioxidant were incubated in a black 96-well microplate (Nunc) for 15 min at 37 °C. 2,2′-Azobis(amidinopropane) dihydrochloride was then added quickly using the built-in injector of Varioskan Flash plate reader (Thermo Scientific). The fluorescence was measured at 485 nm (excitation wavelength) and 535 nm (emission wavelength) each min for 1 h. All the reactions were made in triplicate and at least three different assays were performed for each sample.

EeAChE = target: T1, EeAChE (Electrophorus electricus, UniProt O42275); test: biochemical; format: biochemical; details: for inhibition at 10 µM: 10 μM compound; for inhibition at 10 µM / IC50: Ellman method; for IC50: mean ± SEM; for fold less active than tacrine (EeAChE IC50): relative to tacrine IC50 = 0.03 μM
T1 construct: purchased Sigma Aldrich
T1 sequence (O42275 24-633): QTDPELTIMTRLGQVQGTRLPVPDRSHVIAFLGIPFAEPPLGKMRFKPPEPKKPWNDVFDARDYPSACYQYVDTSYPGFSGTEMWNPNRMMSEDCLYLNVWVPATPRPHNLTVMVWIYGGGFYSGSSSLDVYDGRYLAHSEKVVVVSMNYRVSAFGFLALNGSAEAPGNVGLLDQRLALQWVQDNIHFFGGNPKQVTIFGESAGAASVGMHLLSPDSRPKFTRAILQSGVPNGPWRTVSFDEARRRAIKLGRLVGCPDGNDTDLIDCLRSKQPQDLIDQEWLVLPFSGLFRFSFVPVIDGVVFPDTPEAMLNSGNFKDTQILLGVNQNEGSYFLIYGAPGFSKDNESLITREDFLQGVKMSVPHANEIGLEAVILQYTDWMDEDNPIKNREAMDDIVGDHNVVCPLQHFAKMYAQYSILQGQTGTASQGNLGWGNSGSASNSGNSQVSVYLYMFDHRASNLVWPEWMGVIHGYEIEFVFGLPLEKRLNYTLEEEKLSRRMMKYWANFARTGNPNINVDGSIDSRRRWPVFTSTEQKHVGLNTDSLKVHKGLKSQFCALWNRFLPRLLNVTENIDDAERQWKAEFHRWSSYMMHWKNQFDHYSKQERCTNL
Description: The effect of the test compounds on the activity of both EeAChE and eqBuChE was evaluated following the spectrophotometric method of Ellman. The reaction occurred in a final volume of 3 mL of a 0.1 M phosphate-buffered solution at pH = 8.0, containing 5,5′-dithiobis-2-nitrobenzoic acid (DTNB, 2625 µL, 0.35 mM, final concentration), EeAChE (29 µL, 0.035 U/mL, final concentration) or eqBuChE (60 µL, 0.05 U/mL, final concentration), tested compound (3 µL, […]), and 1% w/v bovine albumin serum phosphate-buffered (pH = 8) solution (BSA, 60 µL). After this pre-incubation period, acetylthiocholine iodide (105 µL, 0.35 mM, final concentration) or butyrylthiocholine iodide (150 µL, 0.5 mM, final concentration) was added, allowing 15 min of additional incubation time.

SMILES: COc1cc(/C=C/C(=O)O)ccc1O [Ferulic acid, reference compound]
- ORAC (TE) [1]: 3.74 ± 0.2 TE
- ORAC (TE) ([1]; listed as ferulic acid): 3.7 TE

SMILES: N#Cc1c(-c2ccc(Oc3ccccc3)cc2)c2c(N)ncnc2n2nc(-c3ccccc3)nc12 [Compound 3k, 6-Amino-5-(4-phenoxyphenyl)-2-phenyl-[1,2,4]triazolo[1′,5′:1,6]pyrido[2,3-d] pyrimidine-4-carbonitrile]
- ORAC (TE) [1]: 2.99 ± 0.2 TE
- antioxidant activity (ORAC) in words [1]: weaker antioxidant activity
- inhibition at 10 µM (EeAChE): 18.6 ± 1.8%

SMILES: N#Cc1c(-c2ccc(Cl)cc2)c2c(N)ncnc2n2nc(-c3ccccc3)nc12 [Compound 3f, 6-Amino-5-(4-chlorophenyl)-2-phenyl-[1,2,4]triazolo[1′,5′:1,6]pyrido[2,3-d] pyrimidine-4-carbonitrile]
- ORAC (TE) [1]: 1.81 ± 0.1 TE
- inhibition at 10 µM (EeAChE): 43.9 ± 1.2%

SMILES: Cc1ccc(-c2c(C#N)c3nc(-c4ccccc4)nn3c3ncnc(N)c23)cc1 [Compound 3b, 6-Amino-2-phenyl-5-(p-tolyl)-[1,2,4]triazolo[1′,5′:1,6]pyrido[2,3-d] pyrimidine-4-carbonitrile]
- ORAC (TE) [1]: 1.77 TE and 1.77 ± 0.1 TE
- inhibition at 10 µM (EeAChE): 73.13 ± 0.1%
- IC50 (EeAChE): 1.17 µM
- fold less active than tacrine (EeAChE IC50) (EeAChE): 39 fold

SMILES: CC(C)c1ccc(-c2c(C#N)c3nc(-c4ccccc4)nn3c3ncnc(N)c23)cc1 [Compound 3i, 6-Amino-5-(4-isopropylphenyl)-2-phenyl-[1,2,4]triazolo[1′,5′:1,6]pyrido[2,3-d] pyrimidine-4-carbonitrile]
- ORAC (TE) [1]: 1.89 ± 0.1 TE
- inhibition at 10 µM (EeAChE): 18.2 ± 1%

SMILES: N#Cc1c(-c2ccc(Br)cc2)c2c(N)ncnc2n2nc(-c3ccccc3)nc12 [Compound 3j, 6-Amino-5-(4-bromophenyl)-2-phenyl-[1,2,4]triazolo[1′,5′:1,6]pyrido[2,3-d] pyrimidine-4-carbonitrile]
- ORAC (TE) [1]: 2.57 ± 0.0 TE
- inhibition at 10 µM (EeAChE): 38.1 ± 1.1%

SMILES: COc1ccccc1-c1c(C#N)c2nc(-c3ccccc3)nn2c2ncnc(N)c12 [Compound 3e, 6-Amino-5-(2-methoxyphenyl)-2-phenyl-[1,2,4]triazolo[1′,5′:1,6]pyrido[2,3-d] pyrimidine-4-carbonitrile]
- ORAC (TE) [1]: 3.79 ± 0.1 TE
- inhibition at 10 µM (EeAChE): 32.3 ± 2.4%

SMILES: N#Cc1c(-c2ccccc2)c2c(N)ncnc2n2nc(-c3ccccc3)nc12 [Compound 3a, 6-Amino-2,5-diphenyl-[1,2,4]triazolo[1′,5′:1,6]pyrido[2,3-d] pyrimidine-4-carbonitrile]
- ORAC (TE) [1]: 1.85 ± 0.1 TE
- inhibition at 10 µM (EeAChE): 40.3 ± 2.4%

SMILES: N#Cc1c(-c2ccc(O)cc2)c2c(N)ncnc2n2nc(-c3ccccc3)nc12 [Compound 3g, 6-Amino-5-(4-hydroxyphenyl)-2-phenyl-[1,2,4]triazolo[1′,5′:1,6]pyrido[2,3-d] pyrimidine-4-carbonitrile]
- ORAC (TE) [1]: 7.17 TE and 7.17 ± 0.2 TE
- antioxidant activity (ORAC) in words [1]: most potent antioxidant
- inhibition at 10 µM (EeAChE): 36.4 ± 0.6%

SMILES: N#Cc1c(-c2ccc([N+](=O)[O-])cc2)c2c(N)ncnc2n2nc(-c3ccccc3)nc12 [Compound 3h, 6-Amino-5-(4-nitrophenyl)-2-phenyl-[1,2,4]triazolo[1′,5′:1,6]pyrido[2,3-d] pyrimidine-4-carbonitrile]
- ORAC (TE) [1]: 3.54 ± 0.1 TE
- antioxidant activity (ORAC) in words [1]: moderate antioxidants
- inhibition at 10 µM (EeAChE): 44.6 ± 1.6%

SMILES: COc1cccc(-c2c(C#N)c3nc(-c4ccccc4)nn3c3ncnc(N)c23)c1 [Compound 3d, 6-Amino-5-(3-methoxyphenyl)-2-phenyl-[1,2,4]triazolo[1′,5′:1,6]pyrido[2,3-d] pyrimidine-4-carbonitrile]
- ORAC (TE) [1]: 4.33 ± 0.1 TE
- inhibition at 10 µM (EeAChE): 31.2 ± 2.1%

SMILES: COc1ccc(-c2c(C#N)c3nc(-c4ccccc4)nn3c3ncnc(N)c23)cc1 [Compound 3c, 6-Amino-5-(4-methoxyphenyl)-2-phenyl-[1,2,4]triazolo[1′,5′:1,6]pyrido[2,3-d] pyrimidine-4-carbonitrile]
- ORAC (TE) [1]: 4.01 TE and 4.01 ± 0.1 TE
- inhibition at 10 µM (EeAChE): 63.9 ± 1.8%
- IC50 (EeAChE): 1.3 µM and 1.32 µM
- fold less active than tacrine (EeAChE IC50) (EeAChE): 44 fold
